In patent US8372991B2, “Trisubstituted thiophenes that modulate intracellular calcium” (Calcimedica, Inc., priority 2008, dated 2013):

Test system: JR251 or RBL cells
Assay: Store-operated calcium entry IC50 in either JR251 or RBL cells
Assay type: cell-based
Description: The day prior to performing the assay Orai1/STIM1 stable cells were plated in 50 μL of complete medium at 90-95% confluence in a 384 well plate. Cells were grown at 37° C./6% CO2 overnight. On the day of the assay, 1.5 μM fluo-4-AM (Invitrogen) in complete medium was added to the cells, which were then incubated for 1 hour at RT. Cells were washed once in Ca^2+-free HBSS (Hank's buffered saline solution) and 35 μl of Ca^2+-free HBSS was added to each well. Test compounds were added to wells in a 10 μL Ca^2+-free HBSS solution, prepared at 4.5× the desired final concentration, and incubated for 30 minutes at RT. The initial baseline fluorescence signal was then measured with a FLIPR^384 (Molecular Devices) plate reader. Calcium entry was initiated by adding 5 μl of 10× CaCl2 (10 mM) in HBSS, and changes in cellular fluorescence were measured with the FLIPR^384 plate reader. In each well, the magnitude of the fluorescence signal as a result of calcium entry into the cell was determined by calculating the difference between the peak fluorescence signal measured after calcium addition and the initial baseline fluorescence signal (designated Peak-Basal). IC50 values were typically calculated as the concentration that inhibited 50% of the Peak-Basal signal (Table A).
The day prior to performing the assay, RBL-2H3 cells are plated in 50 μL of complete medium in a 384 well plate. Cells are grown at 37° C./6% CO2 overnight and grow to 50-60% confluence by the next day. On the assay day, 1.5 μM Fluo-4-AM dye (Invitrogen) in complete medium is added and incubated for 1 hour at RT. Cells are washed twice in Ca^2+-free HBSS buffer and 35 μL Ca^2+-free HBSS buffer is added to each well. 10 μL of a test compound prepared in a Ca^2+-free HBSS solution at 4.5× of the desired concentration is added to a well and incubated for 5 minutes at RT. 10 μL of thapsigargin prepared in a Ca^2+-free HBSS solution at 5.5× of the desired concentration (5.5 uM) is added to each well and incubated for an additional 25 minutes. The initial baseline fluorescence signal is measured with a FLIPR^384 (Molecular Devices) plate reader. 5 μL of 12× calcium in HBSS (12 mM) is added and changes in cellular fluorescence are measured with the FLIPR^384 plate reader. In each well, the change in the fluorescent signal as a function of time due to calcium entry into the cell is determined by calculating the difference between the fluorescent signal measured 7 seconds after calcium addition and the initial baseline fluorescence signal at time zero (t=0). This parameter is designated Upslope. The IC50 value is calculated as the concentration at which 50% of the Upslope is inhibited.

Row | IC50 [µM] | SMILES
1 | < 10 | COc1cccc2cc(-c3csc(NC(=O)c4cc5ccccc5o4)c3C(=O)O)[nH]c12 [2-(benzofuran-2-carboxamido)-4-(7-methoxy-1H-indol-2-yl)thiophene-3-carboxylic acid]
2 | < 10 | Cc1nc(N2CCCCC2)ncc1-c1csc(NC(=O)c2cnn(C)c2Cl)c1C(=O)O [2-(5-chloro-1-methyl-1H-pyrazole-4-carboxamido)-4-(4-methyl-2-(piperidin-1-yl)pyrimidin-5-yl)thiophene-3-carboxylic acid]
3 | < 10 | O=C(Nc1scc(-c2nc3ccccc3n2C(F)F)c1C(=O)O)c1cccc(F)c1 [4-(1-(difluoromethyl)-1H-benzo[d]imidazol-2-yl)-2-(3-fluorobenzamido)thiophene-3-carboxylic acid]
4 | < 10 | Cn1ccc2cc(-c3csc(NC(=O)c4cc5ccccc5o4)c3C(=O)O)ccc21 [2-(benzofuran-2-carboxamido)-4-(1-methyl-1H-indol-5-yl)thiophene-3-carboxylic acid]
5 | < 10 | Cc1ccc(-c2csc(NC(=O)c3nc4ccccc4o3)c2C(=O)O)c2ccccc12 [2-(benzo[d]oxazole-2-carboxamido)-4-(4-methylnaphthalen-1-yl)thiophene-3-carboxylic acid]
6 | < 10 | O=C(Nc1scc(-c2cnn(-c3ccc(Cl)cc3)c2)c1C(=O)O)c1cnccn1 [4-(1-(4-chlorophenyl)-1H-pyrazol-4-yl)-2-(pyrazine-2-carboxamido)thiophene-3-carboxylic acid]
7 | < 10 | O=C(Nc1scc(-c2c[nH]c3ccccc23)c1C(=O)O)c1cc2ccccc2o1 [2-(benzofuran-2-carboxamido)-4-(1H-indol-3-yl)thiophene-3-carboxylic acid]
8 | < 10 | O=C(Nc1scc(-c2cnn(-c3ccc(Cl)cc3)c2)c1C(=O)O)c1cncnc1 [4-(1-(4-chlorophenyl)-1H-pyrazol-4-yl)-2-(pyrimidine-5-carboxamido)thiophene-3-carboxylic acid]
9 | < 10 | Cc1ccc(-c2csc(NC(=O)c3cc4ccccc4o3)c2C(=O)O)c2cccnc12 [2-(benzofuran-2-carboxamido)-4-(8-methylquinolin-5-yl)thiophene-3-carboxylic acid]
10 | < 10 | Cc1nnsc1C(=O)Nc1scc(-c2cnn(-c3ccc(Cl)cc3)c2)c1C(=O)O [4-(1-(4-chlorophenyl)-1H-pyrazol-4-yl)-2-(4-methyl-1,2,3-thiadiazole-5-carboxamido)thiophene-3-carboxylic acid]
11 | < 10 | Cc1nc(N2CCCCC2)ncc1-c1csc(NC(=O)c2snnc2C)c1C(=O)O [2-(4-methyl-1,2,3-thiadiazole-5-carboxamido)-4-(4-methyl-2-(piperidin-1-yl)pyrimidin-5-yl)thiophene-3-carboxylic acid]
12 | < 10 | Cc1nc(N2CCCCC2)ncc1-c1csc(NC(=O)c2cccc(F)c2)c1C(=O)O [2-(3-fluorobenzamido)-4-(4-methyl-2-(piperidin-1-yl)pyrimidin-5-yl)thiophene-3-carboxylic acid]
13 | < 10 | O=C(Nc1scc(-c2nc3ccccc3n2C(F)F)c1C(=O)O)c1cc2ccccc2o1 [2-(benzofuran-2-carboxamido)-4-(1-(difluoromethyl)-1H-benzo[d]imidazol-2-yl)thiophene-3-carboxylic acid]
14 | < 10 | Cc1ccc(-c2csc(NC(=O)c3cc4ccccc4o3)c2C(=O)O)c2ccccc12 [2-(benzofuran-2-carboxamido)-4-(4-methylnaphthalen-1-yl)thiophene-3-carboxylic acid]
15 | < 10 | Cc1cc(-c2csc(NC(=O)c3cnn(C)c3Cl)c2C(=O)O)n(C)n1 [2-(5-chloro-1-methyl-1H-pyrazole-4-carboxamido)-4-(1,3-dimethyl-1H-pyrazol-5-yl)thiophene-3-carboxylic acid]
16 | < 10 | O=C(Nc1scc(-c2ccc3nonc3c2)c1C(=O)O)c1cc2ccccc2o1 [4-(benzo[c][1,2,5]oxadiazol-5-yl)-2-(benzofuran-2-carboxamido)thiophene-3-carboxylic acid]
17 | < 10 | O=C(Nc1scc(-c2cc3ccccc3s2)c1C(=O)O)c1cc2ccccc2o1 [4-(benzo[b]thiophen-2-yl)-2-(benzofuran-2-carboxamido)thiophene-3-carboxylic acid]
18 | < 10 | O=C(Nc1scc(-c2ccc(F)nc2F)c1C(=O)O)c1cc2ccccc2o1 [2-(benzofuran-2-carboxamido)-4-(2,6-difluoropyridin-3-yl)thiophene-3-carboxylic acid]

Row | IC50 [µM] | SMILES
19 | < 10 | Cc1nc(C)c(-c2csc(NC(=O)c3cc4ccccc4o3)c2C(=O)O)s1 [2-(benzofuran-2-carboxamido)-4-(2,4-dimethylthiazol-5-yl)thiophene-3-carboxylic acid]
20 | < 10 | O=C(Nc1scc(-c2ccc(Cl)s2)c1C(=O)O)c1cc2ccccc2o1 [5′-(benzofuran-2-carboxamido)-5-chloro-2,3′-bithiophene-4′-carboxylic acid]
21 | < 10 | CCOc1ccc(-c2csc(NC(=O)c3cc4ccccc4o3)c2C(=O)O)cn1 [2-(benzofuran-2-carboxamido)-4-(6-ethoxypyridin-3-yl)thiophene-3-carboxylic acid]
22 | < 10 | O=C(Nc1cc(-c2nc3ccccc3[nH]2)cs1)c1cccc(F)c1 [N-(4-(1H-benzo[d]imidazol-2-yl)thiophen-2-yl)-3-fluorobenzamide]
23 | < 10 | Cc1ccc(-c2csc(NC(=O)c3ccccc3)c2C(=O)O)o1 [2-benzamido-4-(5-methylfuran-2-yl)thiophene-3-carboxylic acid]
24 | < 10 | Cc1nc(N2CCCCC2)ncc1-c1csc(NC(=O)c2cnccn2)c1C(=O)O [4-(4-methyl-2-(piperidin-1-yl)pyrimidin-5-yl)-2-(pyrazine-2-carboxamido)thiophene-3-carboxylic acid]
25 | < 10 | Cn1cnc(C(=O)Nc2scc(-c3cnn(-c4ccc(Cl)cc4)c3)c2C(=O)O)c1 [4-(1-(4-chlorophenyl)-1H-pyrazol-4-yl)-2-(1-methyl-1H-imidazole-4-carboxamido)thiophene-3-carboxylic acid]
26 | < 10 | Cc1ccc(-c2csc(NC(=O)c3cc4ccccc4o3)c2C(=O)O)s1 [5′-(benzofuran-2-carboxamido)-5-methyl-2,3′-bithiophene-4′-carboxylic acid]
27 | < 10 | Cc1nc(N2CCCCC2)ncc1-c1csc(NC(=O)c2cncnc2)c1C(=O)O [4-(4-methyl-2-(piperidin-1-yl)pyrimidin-5-yl)-2-(pyrimidine-5-carboxamido)thiophene-3-carboxylic acid]
28 | < 10 | O=C(Nc1scc(-c2ccc(Br)s2)c1C(=O)O)c1cc2ccccc2o1 [5′-(benzofuran-2-carboxamido)-5-bromo-2,3′-bithiophene-4′-carboxylic acid]
29 | < 10 | O=C(Nc1scc(-c2ccc3scnc3c2)c1C(=O)O)c1cc2ccccc2o1 [4-(benzo[d]thiazol-5-yl)-2-(benzofuran-2-carboxamido)thiophene-3-carboxylic acid]
30 | < 10 | O=C(Nc1scc(-c2cnc(C(F)(F)F)nc2)c1C(=O)O)c1cc2ccccc2o1 [2-(benzofuran-2-carboxamido)-4-(2-(trifluoromethyl)pyrimidin-5-yl)thiophene-3-carboxylic acid]
31 | < 10 | O=C(Nc1scc(-c2cnc3[nH]ccc3c2)c1C(=O)O)c1cc2ccccc2o1 [2-(benzofuran-2-carboxamido)-4-(1H-pyrrolo[2,3-b]pyridin-5-yl)thiophene-3-carboxylic acid]
32 | < 10 | O=C(Nc1scc(-c2cccs2)c1C(=O)O)c1ccccc1Cl [5′-(2-chlorobenzamido)-2,3′-bithiophene-4′-carboxylic acid]
33 | < 10 | O=C(Nc1scc(-c2ccc3nccnc3c2)c1C(=O)O)c1cc2ccccc2o1 [2-(benzofuran-2-carboxamido)-4-(quinoxalin-6-yl)thiophene-3-carboxylic acid]
34 | < 10 | O=C(Nc1scc(-c2ccc3ccccc3c2)c1C(=O)O)c1nc2ccccc2o1 [2-(benzo[d]oxazole-2-carboxamido)-4-(naphthalen-2-yl)thiophene-3-carboxylic acid]
35 | < 10 | O=C(Nc1scc(-c2ncco2)c1C(=O)O)c1ccc(F)cc1 [2-(4-fluorobenzamido)-4-(oxazol-2-yl)thiophene-3-carboxylic acid]
36 | < 10 | O=C(Nc1scc(-c2ccc(Cl)nc2)c1C(=O)O)c1cccc(F)c1 [4-(6-chloropyridin-3-yl)-2-(3-fluorobenzamido)thiophene-3-carboxylic acid]
